Where two headings read alike, the source gives them in different places.

Series [1] concerns B lymphocyte. The series is described as follows: Patient case study: B lymphocyte competence (proliferation in response to PWM). It is filed as in vivo, human. The protocol:
(§1) The patient was treated with a Formula 2 compound and blood cell parameters were monitored. The sample size for this experiment was 1, consisting of subject 1. Subject 1 is an immune comprised patient with multiple recurrent infectious bouts requiring hospitalization while in a nearly moribund condition began treatment with the experimental drug Isopentyl adenosine (IPA).
(§2) The subject initially received IPA (see FIGS. 1 and 2). T and B lymphocyte competence as measured by the ability of these cells to proliferate in response to specific stimulating mitogens (PHA for T cells and PWM for B cells) which was monitored on a weekly basis until death. As shown in FIGS. 1 and 2 respectively the subject's T and B lymphocyte competence on was well below normal.

Series [2] concerns T lymphocyte. Kind of series: Patient case study: T lymphocyte competence (proliferation in response to PHA). The series is classed as in vivo, human. The procedure: as §1, §2
In series [3] the test system is immune comprised patient. The series is described as follows: Patient case study: clinical status. It is filed as in vivo, human. The protocol:
The patient was treated with a Formula 2 compound and blood cell parameters were monitored. The sample size for this experiment was 1, consisting of subject 1. Subject 1 is an immune comprised patient with multiple recurrent infectious bouts requiring hospitalization while in a nearly moribund condition began treatment with the experimental drug Isopentyl adenosine (IPA). The subject had been hospitalized with avert life-threatening infections. The subject's total white blood cell counts were in the range of 2200-4900 for the three month period preceding hospitalization. […] The patient was hospitalized from depression, exhaustion, bronchial infection, severe diarrhea, severe weight loss and complete loss of appetite and spiked fever. The patient's weight was 98 pounds.

Series [4] relates to irradiated animals. The series is described as follows: Effect of oltipraz on haematological parameters and body weight of irradiated animals. As to conditions: for Body weight on day 6: 750 rads, p>0.05.
Series [5] deals with bone marrow cells. As to conditions: after the 15th day of post-irradiation. The protocol: (§3) Thirty six animals were divided into four groups of nine animals each. […] Group 4 was treated as normal animals without any treatment. On days 5, 10 and 15 after irradiation (750) rads three animals from each group was sacrificed. Blood was collected to heparinized tubes, and plasma was removed and following parameters were assayed in the blood. Activity of the enzyme SOD was measured by NBT reduction method of McCord and Fridovich. CAT activity was estimated by the method of Aebi by measuring the rate of decomposition of hydrogen peroxide at 240 nm. Level of GSH was assayed by the method of Moron et al based on the reaction with DTBN. Assay of GPX followed the method of Hafeman based on the degradation of H2O2 in the presence of GSH. The method of Habig was followed to assay the activity of GST based on the rate of increase in the conjugate formation between GSH and CDNB.
The femurs of three above animals were dissected out and bone marrow cells were flushed into phosphate buffered saline (pH 7.4) containing 2% foetal calf serum. The cells were washed and bone marrow viability was determined by the method of Sredni. The results were expressed as number of live bone marrow cells ×10(6)/femur.

The test system of series [6] is lipid peroxidation. The settings on record: group III; day 15; liver; p<−0.001. The protocol: The liver of the sacrificed animals were excised quickly washed in ice-cold saline and kept at −70° C. till the day of analysis. On the day of analysis 25% homogenate was pre-pared in tris-HCl buffer (0.1 M, pH 7.4). The homogenate was centrifuged at 12000 rpm for 30 minutes and supernatant was used to determine the tissue lipid peroxide levels (LPO) using the TBA method of Okhawa et al.

Series [7] relates to SOD. The settings on record: continuous administration; maximum value on the 15th day after irradiation. The protocol: as §3
Series [8] relates to CAT. As to conditions: continuous administration; maximum on tenth day after irradiation. The protocol: as §3
Series [9] deals with GSH. As to conditions: oltipraz continuously administered group; 15th day; p<0.001. The protocol: as §3
Series [10] has as its system GST. As to conditions: group III; 15th day; p<−0.01. The protocol:
as §3

For series [11], the system named is GPX. As to conditions: group III; 15th day after irradiation; p<−0.001. The procedure:
as §3

In series [12] the test system is T lymphocyte. As to conditions: patients receiving immune stimulating agents; cited from earlier work.
[13] abbreviates: resumed for one week with one-half the recommended dosage.
Setting [14] is: within 7 days of drug therapy initiation.
[15] abbreviates: within a month of resuming therapy at recommended dose levels.
The mark [16] stands for this setting: first period of constant oral doses of IPA.

`CC(C)=CCNc1ncnc2c1ncn2[C@@H]1O[C@H](CO)[C@@H](O)[C@H]1O` [IPA, N6-(Δ2-isopentenyl) adenosine]: the B lymphocyte activity entry in series [1] (setting [13]) is listed as “slight rise”. In series [1] (subject 1, oral IPA), the “Time to major rapid recovery of B lymphocyte competence after initiation of therapy” value was “less than 7 days”. Further, the “Level of B lymphocyte competence” value in [1] (setting [14]) is listed as “above the lower limits-of the normal donor's reactivity”. The B lymphocyte competence result in series [1] (setting [15]) is recorded as “somewhat below lower normal limits”. The T lymphocyte competence result in [2] (dosage greatly (>3×) increased) is “depression suggesting immunotoxicity”; in series [2] (setting [13]) it was “spiked dramatically to above the lower limit of the normal range”; in series [2] (setting [15]) it was “well within the range of normal donor reactivity”; in [2] (within two weeks of resuming therapy at recommended dose levels), “nearly within the normal range”. Besides, in series [2] (subject 1, oral IPA), the “Time to major rapid recovery of T lymphocyte competence after initiation of therapy” value is on record as “less than 7 days”. The “Level of T lymphocyte competence” value in series [2] (setting [14]) is on record as “above the lower limits-of the normal donor's reactivity”. In series [3] (setting [16]), the Fever and diarrhea entry is “completely subsided”. The compound also displayed a Weight gain in [3] (setting [16]) of 15 pound. Besides, the “Life after initiation of therapy” value in series [3] (patient terminally moribund at start) was determined as 5 months.

With `Cc1c(-c2cnccn2)ssc1=S` [oltipraz], the “Body weight on day 6” value in series [4] (group II: oltipraz 50 mgs/Kg ten days prior to irradiation) worked out at 21.02±4.14; in series [4] (group III: oltipraz 50 mgs/Kg ten days prior to and fifteen days after irradiation), 21.10±2.51. Also, the “WBC at later days after irradiation” value in [4] (group III (oltipraz continuously administered) compared with group I (radiation alone) and group II) is recorded as “significantly elevated WBC”. Also, in [4] (irradiated mice, oltipraz groups), the Differential count result is on record as “did not show any significant variation”. In series [4] (oltipraz 50 mgs/Kg, irradiated mice, versus radiation alone), the Total leukocyte count entry is listed as “increase the count”. In addition, the Hemoglobin level in series [4] (oltipraz continuously administered group, day 6) stood at 12.42±2.76. For the same compound, the Bone marrow viability is listed as 5.82 ×10^6 cells/femur in series [5] (group II (oltipraz pre treated)) and 14.32 ×10^6 cells/femur in series [5] (group III (oltipraz continuously administered)). In series [6], the Lipid peroxidation is 2.12±0.21 nano-moles of MDA formed/mg of protein. Also, the SOD activity result in series [7] is listed as “enhanced”. Further, the CAT activity entry in [8] was “enhanced”. The “Levels of GSH compared with radiation alone treated group” value in series [9] was “increased almost three times”. In addition, the GST activity in series [10] is listed as 2.38±0.25 nano-moles of CDNB-GSH conjugate formed. Moreover, the GPX activity in series [11] was 1927.87±136.06 U/L of haemolysate.

In the case of `c1ccc([C@H]2CN3CCSC3=N2)cc1` [Levamisole], the “Immune recovery capacity compared with IPA” value in series [12] was “slower and less dramatic”.

(Values after US8076311B2, “Compositions and methods for modulating the immune system” (priority 2006, dated 2011).)
